Test results reported in ChEMBL document CHEMBL1121937, “Stereochemical studies on medicinal agents. 25. Absolute configuration and analgetic potency of beta-1,2-dimethyl-2-phenyl-4-(propionyloxy)piperidine enantiomers” (J Med Chem, 1982).

Experiments:
[1] = test system: Mus musculus; experiment: Effective dose required for analgesic potency in the hotplate procedure after sc injection into mice.; format: functional
[2] = biological target: Opioid receptors; mu/kappa/delta (Homo sapiens, UniProt P41145+P41143+P35372); experiment: Ability to displace [3H]etorphine from Opioid receptors in guinea pig brain; design: species or system Cavia porcellus

CCC(=O)O[C@]1(c2ccccc2)CCN(C)[C@@H](C)C1
ED50 [1]: 0.53 mg/kg | IC50 [2]: 1200 nM

CCC(=O)OC1(c2ccccc2)CCN(C)C(C)C1 (racemic)
ED50 [1]: 0.52 mg/kg | IC50 [2]: 2000 nM

CCC(=O)O[C@@]1(c2ccccc2)CCN(C)C(C)C1 (single isomer, unassigned; (+))
ED50 [1]: 5.5 mg/kg | IC50 [2]: 11000 nM

CCOC(=O)C1(c2ccccc2)CCN(C)CC1 [MEPERIDINE]
ED50 [1]: 1.3 mg/kg

CN1CC[C@]23c4c5ccc(O)c4O[C@H]2[C@@H](O)C=C[C@H]3[C@H]1C5 [MORPHINE]
ED50 [1]: 1.2 mg/kg
